Data from patent US20090105261A1, “Novel substituted pyrazolo[1,5<I>A</I>]-1,3,5-Triazine derivatives and their analogues, pharmaceutical compositions containing same, use thereof as medicine and methods for preparing same” (GREENPHARMA, priority 2002, published 2009).

How the values were obtained:
PDE6 (bovine) = molecular target: T1, PDE6 (bovine) (Bos taurus, UniProt P11541+P23439); assay: PDE6 inhibition (selectivity); assay type: biochemical; conditions: substrate [3H]cGMP+cGMP 2 μM
T1 sequence (P11541 2-856): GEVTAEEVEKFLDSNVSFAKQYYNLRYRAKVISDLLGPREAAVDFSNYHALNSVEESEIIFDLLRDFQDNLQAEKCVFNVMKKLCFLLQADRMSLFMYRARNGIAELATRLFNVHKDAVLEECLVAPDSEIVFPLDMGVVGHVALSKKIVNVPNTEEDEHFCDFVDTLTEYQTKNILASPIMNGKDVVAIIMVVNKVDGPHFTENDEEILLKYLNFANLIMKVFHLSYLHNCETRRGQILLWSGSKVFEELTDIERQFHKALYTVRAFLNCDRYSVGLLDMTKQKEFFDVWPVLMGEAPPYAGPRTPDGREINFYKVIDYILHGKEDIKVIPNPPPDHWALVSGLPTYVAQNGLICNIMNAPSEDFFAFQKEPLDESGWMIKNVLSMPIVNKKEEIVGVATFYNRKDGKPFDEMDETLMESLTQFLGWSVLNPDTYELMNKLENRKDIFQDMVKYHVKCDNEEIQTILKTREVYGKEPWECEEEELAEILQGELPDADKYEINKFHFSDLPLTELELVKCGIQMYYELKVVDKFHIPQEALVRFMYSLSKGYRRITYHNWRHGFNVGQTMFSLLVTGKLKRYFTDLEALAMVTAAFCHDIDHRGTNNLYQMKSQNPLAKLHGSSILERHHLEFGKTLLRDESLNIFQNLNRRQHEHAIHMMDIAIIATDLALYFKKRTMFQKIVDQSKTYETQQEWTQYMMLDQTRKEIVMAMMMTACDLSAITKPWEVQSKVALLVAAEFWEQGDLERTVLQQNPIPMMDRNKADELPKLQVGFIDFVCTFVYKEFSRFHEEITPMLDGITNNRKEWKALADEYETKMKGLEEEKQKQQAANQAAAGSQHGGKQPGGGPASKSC
T1 sequence (P23439 2-850): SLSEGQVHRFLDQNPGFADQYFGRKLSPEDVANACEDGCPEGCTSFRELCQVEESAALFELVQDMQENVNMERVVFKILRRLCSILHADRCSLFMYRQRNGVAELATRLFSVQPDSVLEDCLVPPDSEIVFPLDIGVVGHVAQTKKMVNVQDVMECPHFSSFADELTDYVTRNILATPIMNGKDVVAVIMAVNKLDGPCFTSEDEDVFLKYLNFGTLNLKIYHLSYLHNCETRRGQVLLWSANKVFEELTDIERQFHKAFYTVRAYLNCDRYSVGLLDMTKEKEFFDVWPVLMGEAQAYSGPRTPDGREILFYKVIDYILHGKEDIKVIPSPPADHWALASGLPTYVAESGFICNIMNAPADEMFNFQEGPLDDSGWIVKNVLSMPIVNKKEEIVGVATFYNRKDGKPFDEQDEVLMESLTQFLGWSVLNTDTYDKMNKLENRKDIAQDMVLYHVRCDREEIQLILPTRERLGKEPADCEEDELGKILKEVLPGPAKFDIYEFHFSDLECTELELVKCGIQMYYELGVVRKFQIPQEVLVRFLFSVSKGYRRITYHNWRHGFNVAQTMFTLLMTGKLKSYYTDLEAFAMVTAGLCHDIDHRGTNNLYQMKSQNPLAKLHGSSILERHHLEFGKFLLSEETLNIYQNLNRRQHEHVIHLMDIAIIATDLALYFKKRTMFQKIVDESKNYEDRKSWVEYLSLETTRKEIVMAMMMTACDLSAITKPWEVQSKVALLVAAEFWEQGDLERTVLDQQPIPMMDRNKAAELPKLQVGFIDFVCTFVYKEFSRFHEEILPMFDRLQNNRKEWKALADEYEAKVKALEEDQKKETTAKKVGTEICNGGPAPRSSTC
T1 sequence (P04972 1-87 partner): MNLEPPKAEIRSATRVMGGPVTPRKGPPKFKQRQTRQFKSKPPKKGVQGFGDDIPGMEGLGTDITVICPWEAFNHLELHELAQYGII
Source text: (§1) cyclic nucleotide phosphodiesterases: PDE1 (bovine), PDE3 (human), PDE5 (human) and PDE6 (bovine), by following the methods described, respectively, by: (i, PDE1) Nicholson C. D., JACKMAN S. A. and WILKE R. (Brit. J. Pharmacol. 1989, 97, 889-897); (ii, PDE3 and PDE5) Weishaar, R. E., Burrows, S. D., Kobylarz, D. C., Quade, M. M. and Evans, D. B. (Biochem. Pharmacol., 1986, 35, 787-800); (iii PDE6) Ballard, A. S., Gingell, C. J., Tang, K., Turner, L. A., PRICE, M. E. (J. Urol, 1998, 159, 2164-2171). […] In the case of PDE5 and PDE 6, the substrate used is ([3H]cGMP+cGMP) at a concentration of 1 μM for PDE5 and 2 μM for PDE6. A quantitative measurement of the hydrolysis products [3H]-5′-AMP and [3H]-5′-GMP was determined by scintillation.

[1] = tested on: rat embryonic motoneuron cells; assay: Apoptosis induced by elimination of BDNF in primary motoneuron cultures; assay type: cell-based; conditions: BDNF deprivation; concentration of 1 mM
Protocol: This test was carried out according to the protocol described by Estevez A. G. et al. (J. Neurosci. 1998, 18(3), 923-931). Briefly, when primary cultures of rat embryonic motoneuron cells are deprived of brain-derived neurotrophic factor (BDNF), an induction of neuronal nitric oxide synthase (NOS) was observed, resulting in the gradual death of the neurons by apoptosis: between 18 and 24 hours after having realized the biological preparation, more than 60% of the neurons die. In this model of induced apoptosis, the compound sodium 4-[[1-(oxo)-3-(4-oxopyrazolo[1,5-a]-1,3,5-triazin-8-yl)propyl]amino]benzoate (Ia5) protects more than 70% of the neurons at a concentration of 1 mM.

[2] = tested on: neurons cultured from fetal rat brain cortex; assay: Neurite development in primary neuron cultures from fetal rat brain cortex; assay type: cell-based
Protocol: FIG. 1 represents the effect of the molecule Ia5 on neurons in culture. The neurons are cultured in Neurobasal medium from fetal rat brain cortex according to the procedure described in example 4 and are photographed without staining 17 days after being placed in culture. Culture A is a control culture without compound. The molecule Ia5 was added to culture B on the 8th day after the placing in culture, at a concentration of 50 μM.
Compounds according to the invention were evaluated for their neurotrophic properties. The idea is therefore to observe the behavior of a neuron cell culture in the absence and presence of such molecules. The molecule called Ia5 used during this example is a molecule having the general structure Ic1, where n=2 and m=0, in the form of a sodium salt.
The adult animals are mated and the female rats are separated the following day. After 16 days, the gestating rats undergo a cesarean and the fetuses are placed in a Petri dish 100 mm in diameter. They are transferred, under a laminar flow hood, into sterile medium. The fetuses are isolated by units and are dissected under a binocular magnifying lens in sterile medium. The cerebral cortex is isolated and placed in a tube containing Neurobasal medium without antibiotic. […] The cells are counted using a Mallassez hematometer in the presence of trypan blue in order to determine the cell viability. […]

motoneurons = assay: Motoneuron apoptosis induced by peroxynitrite; assay type: cell-based; conditions: concentration of 1 mM
Protocol: This test was carried out according to the protocol described by Cassina P. et al. (J. Neurosci. Res. 2002 67(1): 21-9). Briefly, the oxidative stress mediated by nitric oxide and its toxic metabolite, peroxynitrite, has been associated with motoneuron degeneration, in particular in amyotrophic lateral sclerosis. The astrocytes of the spinal cord respond to extracellular concentrations of peroxynitrite by adopting a phenotype which is cytotoxic for the motoneurons. In this model of apoptosis induced by peroxynitrite, the compound sodium 4-[[1-(oxo)-3-(4-oxopyrazolo[1,5-a]-1,3,5-triazin-8-yl)propyl]amino]benzoate (Ia5) protects more than 60% of the neurons at a concentration of 1 mM.

PDE1 (bovine) = assay: PDE1 inhibition (selectivity); assay type: biochemical; conditions: substrate [3H]cAMP+cAMP 1 μM, 30 minutes at 30° C.
Source text: as §1

TNFα = TNFα in supernatants of LPS-activated venous blood mononuclear cells (PBMCs), EIA; assay type: cell-based; conditions: PBMC, LPS 1 μg/ml, 24 hours incubation
Protocol: The compounds according to the invention were evaluated for their anti-inflammatory properties on venous blood mononuclear cells (PBMCs). More particularly, the cells were incubated for 24 hours in the presence of the molecule tested, after activation with lipopolysaccharide (LPS) (1 μg/ml) according to the protocol described by Schindler, R., Mancilla, J., Endres, S., Ghorbani, R., Clark, S. C. and Dinarello, C. A. (Blood, 1990, 75, 40-47). After incubation, the TNFα concentrations were measured in the culture supernatants by the EIA method.

[3] = molecular target: T2, human phosphodiesterase type 2 (source: U-937 cells) (Homo sapiens, UniProt O00408); assay: PDE2 inhibition, [3H]cAMP hydrolysis, scintillation; assay type: biochemical; conditions: substrate [3H]cAMP+cAMP 1 μM, 30 minutes at 30° C.
T2 construct: human phosphodiesterase type 2 (source: U-937 cells); endogenous in cells; host or cells: U-937 cells
T2 sequence (O00408 whole entry): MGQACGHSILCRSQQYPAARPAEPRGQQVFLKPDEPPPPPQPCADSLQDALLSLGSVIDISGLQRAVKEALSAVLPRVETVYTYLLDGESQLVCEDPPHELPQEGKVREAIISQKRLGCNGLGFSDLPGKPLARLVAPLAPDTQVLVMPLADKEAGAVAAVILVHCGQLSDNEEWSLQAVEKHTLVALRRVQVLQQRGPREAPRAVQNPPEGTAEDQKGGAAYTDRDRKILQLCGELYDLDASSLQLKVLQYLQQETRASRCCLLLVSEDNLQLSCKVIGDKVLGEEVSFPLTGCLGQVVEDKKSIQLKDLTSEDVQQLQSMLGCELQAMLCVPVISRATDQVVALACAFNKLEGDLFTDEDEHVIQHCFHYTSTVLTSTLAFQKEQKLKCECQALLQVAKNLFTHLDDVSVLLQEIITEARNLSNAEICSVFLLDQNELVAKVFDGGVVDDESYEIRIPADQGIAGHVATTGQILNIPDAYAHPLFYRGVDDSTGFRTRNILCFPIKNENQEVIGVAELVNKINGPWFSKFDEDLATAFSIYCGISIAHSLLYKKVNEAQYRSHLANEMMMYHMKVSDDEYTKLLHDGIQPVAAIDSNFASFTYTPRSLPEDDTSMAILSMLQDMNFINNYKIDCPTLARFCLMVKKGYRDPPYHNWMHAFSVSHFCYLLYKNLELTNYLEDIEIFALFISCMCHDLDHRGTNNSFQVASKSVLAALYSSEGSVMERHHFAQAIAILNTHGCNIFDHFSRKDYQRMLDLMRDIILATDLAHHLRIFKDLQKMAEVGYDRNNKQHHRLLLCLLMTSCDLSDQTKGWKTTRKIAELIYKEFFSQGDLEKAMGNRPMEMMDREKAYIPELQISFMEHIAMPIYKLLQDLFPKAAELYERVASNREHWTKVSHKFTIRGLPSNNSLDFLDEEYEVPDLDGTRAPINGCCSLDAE
Protocol: This novel family of compounds was tested as an inhibitor of human phosphodiesterase type 2 (source: U-937 cells) by following the method described by Torphy, T. J., Zhou, H. L. and Cieslinski, L. B. (J. Pharmacol. Exp. Ther., 1992, 263, 1195-1205). […] A quantitative measurement of the hydrolysis product [3H]-5′-AMP was determined by scintillation.

Work on `CCCc1nc(N(C)c2ccccc2)n2ncc(C(O)c3ccoc3)c2n1` (stereo not shown) [Ib15, 8-[(3-Furyl)(hydroxy)methyl]-4-(N-methyl-N-phenylamino)-2-n-propylpyrazolo[1,5-a]-1,3,5-triazine] yielded a melting point of 142 to 144 °C.

`CCCOc1ccccc1-c1nc2nn[nH]c2c(=O)[nH]1` [zaprinast] showed an IC50 (PDE6 (bovine)) of 380 nM.

With `O=C(CCc1cnn2c(=O)[nH]cnc12)Nc1ccc(C(=O)[O-])cc1.[Na+]` [Ia5, Sodium 4-[[1-(oxo)-3-(4-oxopyrazolo[1,5-a]-1,3,5-triazin-8-yl)propyl]amino]benzoate] the neurons protected [1] was “more than 70%”, the “neurite morphology in culture B compared with control A (FIG. 1)” value ([2]; 50 μM added on the 8th day, photographed 17 days after being placed in culture) was “thickening and an elongation of the neurites” and the “neurite development compared with control cells” value ([2]; primary fetal rat cortex neurons, test molecule at 0.1, 1 and 10 μmol/l) was “greater neurite development than in the cells acting as control”. For the same compound, the neurons protected (motoneurons) was “more than 60%”.

Compound `COCc1nc2c([nH]1)c(=O)n(C)c(=O)n2CC(C)C` [8-methoxy-IBMX] has an IC50 (PDE1 (bovine)) of 2900 nM.

Compound `C[C@@H]1C[C@H]2[C@@H]3CCC4=CC(=O)C=C[C@]4(C)[C@@]3(F)[C@@H](O)C[C@]2(C)[C@@]1(O)C(=O)CO` [dexamethasone] has an IC50 (TNFα) of 4600 nM.

In the case of `CCCCCC[C@@H]([C@@H](C)O)n1cnc2c(N)ncnc21` (racemic) [EHNA], the IC50 [3] is reported as 2100 nM.

Compound `CCCc1nc(N(C)c2ccccc2)n2ncc(C(O)c3cccs3)c2n1` (stereo not shown) [Ib18, 8-[(Hydroxy)(2-thienyl)methyl]-4-(N-methyl-N-phenylamino)-2-n-propylpyrazolo[1,5-a]-1,3,5-triazine] has a melting point of 150 to 152 °C.
